Values after ≈ are worked out from the molar mass of the structure shown. Read-outs that look alike come from different tables or passages of the source.
Experiments:
Experiment in all cases: Minimum inhibitory concentration
Type in all cases: cell-based
[1] = system: Staphylococcus aureus 0126
Source text: (§1) Minimum Inhibitory Concentration (μg/ml)
**erythromycin and oreandomycin resistant strain.

[2] = system: Staphylococcus aureus MS353
[3] = system: Staphylococcus aureus ATCC 6538p; conditions: ATCC6538P
[4] = system: Streptococcus pyogenes N.Y.5
[5] = system: Staphylococcus aureus MS353 C36; conditions: MS353C36, read-out: Minimum Inhibitory Concentration
Source text: as §1
*erythromycin resistant strain

[6] = Staphylococcus aureus, 0126, read-out: Minimum Inhibitory Concentration
[7] = Staphylococcus aureus 0126, erythromycin and oreandomycin resistant strain, read-out: Minimum Inhibitory Concentration

Row | SMILES | MIC [1, 6] [µg/mL] | MIC [2] [µg/mL] | MIC [3] [µg/mL] | MIC [4] [µg/mL] | MIC [5] [µg/mL] | MIC [1, 7] [µg/mL]
1 | CC[C@H]1OC(=O)[C@H](C)[C@@H](O[C@H]2C[C@@](C)(OC)[C@@H](O)[C@H](C)O2)[C@H](C)[C@@H](O[C@@H]2O[C@H](C)C[C@H](N(C)C)[C@H]2O)[C@](C)(O)C[C@@H](C)C(=O)[C@H](C)[C@@H](O)[C@]1(C)O [erythromycin, reference compound] | > 100 | 0.2 (≈ 0.273 µM) | 0.2 (≈ 0.273 µM) | ≤ 0.05 | > 100 | –
2 | CCC1OC(=O)CC(O)C(C)C(OC2OC(C)C(OC3CC(C)(O)C(O)C(C)O3)C(N(C)C)C2O)C(C)CC(C)C(=O)C=CC(C)=CC1COC1OC(C)C(O)C(OC)C1OC (stereo not drawn) [19-deformyltylosin] | – | 1.6 (≈ 1.8 µM) | 1.6 (≈ 1.8 µM) | 1.6 (≈ 1.8 µM) | 0.8 (≈ 0.901 µM) | –
3 | CCC1OC(=O)CC(OC(=O)Cc2ccccc2)C(C)C(OC2OC(C)C(O)C(N(C)C)C2O)C(C)CC(C)C(=O)C=CC(C)=CC1COC1OC(C)C(O)C(OC)C1OC (stereo not drawn) [19-deformyl-4'-demycarosyl-3-phenylacetyltylosin] | 0.4 (≈ 0.464 µM) | 0.2 (≈ 0.232 µM) | 0.2 (≈ 0.232 µM) | ≤ 0.05 | 0.1 (≈ 0.116 µM) | –
4 | CC[C@H]1OC(=O)C[C@@H](O)[C@H](C)[C@@H](O[C@@H]2O[C@H](C)[C@@H](O[C@H]3C[C@@](C)(O)[C@@H](O)[C@H](C)O3)[C@H](N(C)C)[C@H]2O)[C@@H](CC=O)C[C@@H](C)C(=O)/C=C/C(C)=C/[C@@H]1CO[C@@H]1O[C@H](C)[C@@H](O)[C@@H](OC)[C@H]1OC [tylosin] | 1.6 (≈ 1.75 µM) | 3.1 (≈ 3.38 µM) | 1.6 (≈ 1.75 µM) | 0.4 (≈ 0.437 µM) | 1.6 (≈ 1.75 µM) | –
5 | CCC1OC(=O)CC(O)C(C)C(OC2OC(C)C(O)C(N(C)C)C2O)C(C)CC(C)C(=O)C=CC(C)=CC1COC1OC(C)C(O)C(OC)C1OC (stereo not drawn) [19-deformyl-4'-demycarosyltylosin] | – | 0.2 (≈ 0.269 µM) | 0.2 (≈ 0.269 µM) | 0.1 (≈ 0.134 µM) | 0.2 (≈ 0.269 µM) | 0.8 (≈ 1.08 µM)
6 | CCC1CC(C)C(=O)C=CC(C)=CC(COC2OC(C)C(O)C(OC)C2OC)C(CC)OC(=O)CC(O)C(C)C1OC1OC(C)C(O)C(N(C)C)C1O (stereo not drawn) [20-deoxo-4'-demycarosyltylosin] | – | 0.2 (≈ 0.264 µM) | 0.2 (≈ 0.264 µM) | 0.2 (≈ 0.264 µM) | 0.1 (≈ 0.132 µM) | –
7 | CCC1OC(=O)C=CC(C)C(OC2OC(C)C(O)C(N(C)C)C2O)C(C)CC(C)C(=O)C=CC(C)=CC1COC1OC(C)C(O)C(OC)C1OC (stereo not drawn) [19-deformyl-2,3-didehydro-3-dehydroxy-4'-demycarosyltylosin] | – | 0.2 (≈ 0.276 µM) | 0.2 (≈ 0.276 µM) | 0.2 (≈ 0.276 µM) | 0.4 (≈ 0.551 µM) | 1.6 (≈ 2.2 µM)

Source: US4345069A, “Deformyltylosin derivatives” (Toyo Jozo Kabushiki Kaisha, priority 1979, dated 1982)
